Test results: patent EP0565593B1, “REDUCING PESTICIDAL INTERACTIONS IN CROPS” (priority 1990, dated 1992)
“And” between values parts separate entries of the source, which are not always exact repeats. Identical values can stand only once. Like-named read-outs stand apart in the source and are kept apart here.

What was measured:
Corn [1] = assay: whole plant or invertebrate; settings: Zea mays, iv; for inhibition at 20 g/ha: read-out: % Inhibition Corn, XRD-498 0.02 Kg/Ha alone
Velvetleaf (VELE) = assay: whole plant or invertebrate; assay type: in vivo, Abutilon theophrasti; settings: for inhibition at 140 g/ha / inhibition at 20 g/ha: Abutilon theophrasti, iv; for inhibition at 20 g/ha: XRD-498 0.02 Kg/Ha alone
SJCA = assay: Greenhouse test Procedure IV: herbicide, biocide and antidote PPI, weed SJCA (Examples 53-55; Tables 52-54); assay type: in vivo; settings: Herbicide No. 21 0.14 Kg/Ha, all PPI
Description: The test in this example paralleled that in Example 51, except the procedure was according to Procedure IV above and the herbicides used were No. 1 (MON-12000); No. 21 (XRD-498) and, again, No. 18 (PURSUIT); the biocide was, again, MOCAP®. Observations were taken thirteen (13) days after PPI treatment with biocide and antidote.
This test was identical to that in Example 52, except for use of a different biocide, DIAZINON (Biocide No. 5, a nematicide and soil insecticide).
This test was also identical to that in the preceding two examples, except that the biocide was malathion (No. 7, an insecticide).
This test was identical to the preceding ones, except the biocide was DPX-43898 (No. 6, active ingredient in FORTRESS® insecticide, a soil insecticide). Also, the observation time was fourteen (14) days after PPI initiation.

Corn [2] = tested on: Corn
Giant foxtail (GIFT) = assay: whole plant or invertebrate; assay type: in vivo; settings: for inhibition at 140 g/ha / inhibition at 20 g/ha: Setaria faberi, iv; for inhibition at 20 g/ha: XRD-498 0.02 Kg/Ha alone
Corn [3] = assay: Multi-crop greenhouse test, herbicide POE (Examples 62-64; Tables 61-63); assay type: in vivo; settings: COUNTER 15G and BEACON; Example 62
Description: Tests according to this invention in various crops indicate widespread application of the invention. In Examples 62-66 below are described tests with a variety of herbicides contacted with COUNTER® 15G in the presence and absence of MON-7400 (Antidote No. 12); MON-13900 (No. 1); MON-4660 (No. 16) and flurazole (No. 16). Those tests were conducted according to Procedures IV or V described above and illustrated further in other foregoing examples. Plants used in all tests were, for crops (as abbreviated in parentheses); cotton (COTT); soybean (SOBE); CORN, grain sorghum (GRSO); wheat (WHEA) and RICE, and the weeds giant foxtail (GIFT) and velvetleaf (VELE). The data in the tables below represent averages of two replications.
In this test the crops and weeds were planted 1.3 cm deep in 13.7 cm X 27.7 cm pans containing Dupo silt loam soil. The test safeners were applied in acetone solution and COUNTER 15G as dry granules to soil cover layers and incorporated by shaking in a bag. Treated cover layers were placed on seeded pans which were transferred to greenhouse benches and subirrigated. Herbicide was applied POE six (6) days after PPI initiation and observations of plant injury made ten (10) days later; results are shown in Table 61. The herbicide used in this example was BEACON (No. 8).
The test procedure described in Example 62 was repeated using ACCENT® (Herbicide No. 7) as the herbicide; the biocide and safeners were the same.

Corn [4] = assay: Greenhouse test Procedure VII: biocide and antidote in furrow, herbicide POE (Examples 39-42, 48-50, 56-58; Tables 38-41, 47-49, 55-57); assay type: in vivo; settings: in-furrow antidote; COUNTER 15G + sulfonamide herbicides; Table 41
In short: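 Corn seed was planted in greenhouse pots, with COUNTER 15G insecticide plus antidote granules applied in-furrow (e.g. 1.1 + 0.37 mg a.i./cm, or 227 g/305 m with acetone-applied safeners). About five days later, herbicides in water with 0.25% v/v X-77 were track-sprayed post-emergence at 187 L/ha. Plant response was scored eight days afterward, with two to four replicates.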

Corn [5] = assay: Greenhouse test Procedure VI: biocide and antidote in furrow, herbicide PPI in cover layer (Examples 43-47, 59-61; Tables 42-46, 58-60); assay type: in vivo; settings: COUNTER 15G/PURSUIT interaction; Example 47
Description: This procedure describes interaction among herbicide, biocide and antidote when the herbicide is incorporated in a soil cover layer and the biocide and the antidote are applied in a soil furrow containing crop seed before emergence of the crop. The soil and seeding depth were described in Procedure IV. A first container was designated as an untreated control, a second container was designated as a herbicide control, a third container was designated as a herbicide + biocide control and a fourth container as a herbicide + biocide + antidote test container. The biocide and antidote were formulated as granules. The biocide was applied to the soil furrows of the third and fourth containers at an application rate of 1.1 mg of active compound per cm of row. The antidote was applied to the soil furrow of the fourth container at an application rate of 0.37 mg of active compound per cm of row. A measured amount of the herbicide dispersed or dissolved in acetone was applied to a measured quantity of soil. The quantity of soil treated with the herbicide was thoroughly mixed to incorporate the herbicide. Samples of this soil were used to cover the seed beds of the second, third and fourth containers. For each test series, the seed bed of the first container was likewise covered by a soil layer not treated with herbicide and without biocide or antidote in the soil furrow.
The containers were then placed on a bench in a greenhouse. Watering was by subirrigation plus overhead irrigation after the plants emerged. All treatments were run in duplicate. Plant response was observed according to Procedure IV. Variations in this procedure will be noted in the examples.
In continuing tests to evaluate the variations of this invention, a series of tests were conducted to determine the efficacy of the above safeners in Examples 39-42 to alleviate corn injury induced by the interaction of various additional commercial sulfonylurea herbicides with COUNTER 15G insecticide. In this example, the tests were conducted according to Procedure VI above. In modifications of that procedure, herbicides were applied to soil samples as acetone/water suspensions, incorporated by shaking in a closed container, with subsamples used to cover furrow-treated 10.2 cm pots. Pots were subirrigated followed by overhead misting on days 6-10.
This example was designed to test the safening effect of those above safeners used in this test series to relieve corn injury by negative synergism induced by interaction of COUNTER 15G and three imidazolinone herbicides, i.e., imazaquin and imazapyr (used in the POE tests in Example 41) and AC 263222 (a.i. in CADRE® herbicide). As differing from the tests in Example 41, this test was a PPI test according to Procedure VI described above. Observation of test results (Table 43) were taken thirteen 913) days after in-furrow PPI preparation.
This example describes PPI tests to evaluate said test safeners in this series with analogs of the sulfonamide herbicides tested under POE herbicide application procedures described in Example 42. In these tests, conducted according to Procedure VI described above, Herbicide Nos. 20, 22 and 24 were applied PPI with the insecticide and antidote. Observations of tests results were made thirteen days after PPI initiation.
An additional three (3) sulfonamide herbicide analogs were tested simultaneously and under the same conditions described in Example 45.
Another test of this invention involved the safening effects of the safeners in this series against negative synergy inducted by the interaction of COUNTER 15G and a sulfonylurea herbicide (OUST®), Herbicide No. 13, and PURSUIT, an imidazolinone herbicide, No. 6. Test conditions were the same as those in Examples 43-46. Other procedures for applying herbicidal formulations are as described in Example 42. […]

[6] = 312 h, PPI, 13 days after PPI (Table 31)
[7] = 336 h, PPI, 14 days after PPI (Table 34)
[8] = 312 h, Herb. No. 21 0.14 kg/Ha alone, PPI, 13 days after planting
[9] = 312 h, Table 51, Herbicide No. 21 0.14 Kg/Ha, where applied Biocide No. 8 8.96 kg/Ha and antidote 4.48 Kg/Ha, all PPI, observed 13 days after treatment
[10] = Herbicide No. 21 0.0175 Kg/Ha PPI alone, Table 23
[11] = Herbicide No. 21 0.0175 Kg/Ha PPI alone, Table 24
[12] = Herbicide No. 21 0.0175 Kg/Ha PPI alone, Table 25
[13] = Herbicide No. 21 0.0175 Kg/Ha PPI alone, Table 26
[14] = XRD-498 0.02 Kg/Ha PPI alone, 13 days after treatment
[15] = […], PPI, 14 days after PPI (Table 34)
[16] = Herb. […], PPI, 13 days after planting
[17] = […], PPI, 13 days after PPI (Table 31)

## Cc1ccn2nc(S(=O)(=O)Nc3c(F)cccc3F)nc2n1 [Herbicide No. 21, 5-Methyl-N-(2,6-difluorophenyl)-1,2,4-triazolo[1,5-a]pyrimidine-2-sulfonamide, reference compound]
Corn [1]; 312 h, read-out: % Inhibition Corn, Herb. No. 21 0.14 kg/Ha alone, PPI, 13 days after planting
  inhibition at 140 g/ha: 5%
Corn [1]; 312 h, read-out: % Inhibition Corn, Table 51, Herbicide No. 21 0.14 Kg/Ha, where applied Biocide No. 8 8.96 kg/Ha and antidote 4.48 Kg/Ha, all PPI, observed 13 days after treatment
  inhibition at 140 g/ha: 10%
Corn [1]; 312 h, read-out: % Inhibition Corn, Table 52, Herbicide No. 21 0.14 Kg/Ha, where applied Biocide No. 5 8.96 kg/Ha and antidote 4.48 Kg/Ha, all PPI, observed 13 days after treatment
  inhibition at 140 g/ha: 5%
Corn [1]; 312 h, read-out: % Inhibition Corn, Table 53, Herbicide No. 21 0.14 Kg/Ha, where applied Biocide No. 7 8.96 kg/Ha and antidote 4.48 Kg/Ha, all PPI, observed 13 days after treatment
  inhibition at 140 g/ha: 10%
Corn [1]; [6]
  inhibition at 20 g/ha: 5%
Corn [1]; 336 h, read-out: % Inhibition Corn, Table 54, Herbicide No. 21 0.14 Kg/Ha, where applied Biocide No. 6 8.96 kg/Ha and antidote 4.48 Kg/Ha, all PPI, observed 14 days after PPI initiation
  inhibition at 140 g/ha: 10%
Corn [1]; [7]
  inhibition at 20 g/ha: 20%
Velvetleaf (VELE); [8]
  inhibition at 140 g/ha: 75%
Velvetleaf (VELE); [9]
  inhibition at 140 g/ha: 80%
Velvetleaf (VELE); 312 h, Table 52, Herbicide No. 21 0.14 Kg/Ha, where applied Biocide No. 5 8.96 kg/Ha and antidote 4.48 Kg/Ha, all PPI, observed 13 days after treatment
  inhibition at 140 g/ha: 80%
Velvetleaf (VELE); 312 h, Table 53, Herbicide No. 21 0.14 Kg/Ha, where applied Biocide No. 7 8.96 kg/Ha and antidote 4.48 Kg/Ha, all PPI, observed 13 days after treatment
  inhibition at 140 g/ha: 85%
Velvetleaf (VELE); [6]
  inhibition at 20 g/ha: 80%
Velvetleaf (VELE); 336 h, Table 54, Herbicide No. 21 0.14 Kg/Ha, where applied Biocide No. 6 8.96 kg/Ha and antidote 4.48 Kg/Ha, all PPI, observed 14 days after PPI initiation
  inhibition at 140 g/ha: 85%
Velvetleaf (VELE); [7]
  inhibition at 20 g/ha: 80%
Velvetleaf (VELE); [10]
  % Inhibition VELE: 60%
Velvetleaf (VELE); [11]
  % Inhibition VELE: 45%
Velvetleaf (VELE); [12]
  % Inhibition VELE: 60%
Velvetleaf (VELE); [13]
  % Inhibition VELE: 50%
Velvetleaf (VELE); [14]
  % Inhibition VELE: 90%
Velvetleaf (VELE); [15]
  % Inhibition VELE: 90%
Velvetleaf (VELE); in vivo
  % Inhibition VELE: 70% and 75%
Velvetleaf (VELE); in vivo, listed as XRD-498
  % Inhibition VELE: 90%
SJCA; 312 h, Table 52, where applied Biocide No. 5 8.96 kg/Ha and antidote 4.48 Kg/Ha, observed 13 days after treatment
  inhibition at 140 g/ha: 70%
SJCA; 312 h, Table 53, where applied Biocide No. 7 8.96 kg/Ha and antidote 4.48 Kg/Ha, observed 13 days after treatment
  inhibition at 140 g/ha: 75%
SJCA; 336 h, Table 54, where applied Biocide No. 6 8.96 kg/Ha and antidote 4.48 Kg/Ha, observed 14 days after PPI initiation
  inhibition at 140 g/ha: 60%
Corn [2]; [16]
  % Inhibition Corn: 75%
Corn [2]; [10]
  % Inhibition Corn: 0%
Corn [2]; [11]
  % Inhibition Corn: 0%
Corn [2]; [12]
  % Inhibition Corn: 0%
Corn [2]; [13]
  % Inhibition Corn: 5%
Corn [2]; [14]
  % Inhibition Corn: 15%
Corn [2]; XRD-498 with OP insecticides, Examples 24-27
  corn injury: 30-55%
Corn [2]; XRD-498 without insecticide, Examples 24-27
  corn injury: 0-5%
Corn [2]; [17]
  % Inhibition Corn: 70%
Corn [2]; [15]
  % Inhibition Corn: 75%
Corn [2]; herbicide used in conjunction with COUNTER, Tables 29-37
  corn injury: 55-70%
Corn [2]; herbicide without COUNTER, Tables 29-37
  corn injury: 0-5%
Corn [2]; in vivo
  % Inhibition Corn: 50% and 30% and 55%
Corn [2]; in vivo, listed as XRD-498
  % Inhibition Corn: 75%
Giant foxtail (GIFT); [16]
  % Inhibition GIFT: 95%
Giant foxtail (GIFT); [10]
  % Inhibition GIFT: 0%
Giant foxtail (GIFT); [11]
  % Inhibition GIFT: 0%
Giant foxtail (GIFT); [12]
  % Inhibition GIFT: 0%
Giant foxtail (GIFT); [13]
  % Inhibition GIFT: 0%
Giant foxtail (GIFT); [8]
  inhibition at 140 g/ha: 40%
Giant foxtail (GIFT); [9]
  inhibition at 140 g/ha: 70%
Giant foxtail (GIFT); [6]
  inhibition at 20 g/ha: 30%
Giant foxtail (GIFT); [7]
  inhibition at 20 g/ha: 35%
Giant foxtail (GIFT); [14]
  % Inhibition GIFT: 25%
Giant foxtail (GIFT); [17]
  % Inhibition GIFT: 75%
Giant foxtail (GIFT); [15]
  % Inhibition GIFT: 65%
Giant foxtail (GIFT); in vivo
  % Inhibition GIFT: 60% and 75% and 90%

## N#CCOc1ccc(Cl)c2cccnc12 [Antidote No. 33, Acetonitrile, [(5-chloro-8-quinolinyl)oxy]-]
Corn [3]
  corn injury: effectively reduced
Corn [4]
  corn injury: significantly reduced
Corn [5]
  safening: good activity
